Marks after values point to notes of the source that are not given here.
Test system: male Sprague-Dawley rats
Assay: EEG/EMG/Tcore/LMA telemetry sleep study 3 (almorexant vs ZOL)
Format: in vivo, rat
Details: for REM:NR ratio: 6 h after dosing
Procedure: All rodent electroencephalograph (EEG) studies were performed at SRI International. Three groups of eight male Sprague-Dawley rats (300±25 g; Charles River, Wilmington, MA) were implanted with chronic recording devices (F40-EET, Data Sciences Inc., St Paul, MN) for continuous recordings of EEG, electromyograph (EMG), core body temperature (Tcore), and LMA via telemetry as previously described. Data recording and scoring were performed as previously reported (see also Supplemental Material and Methods). The EEG and EMG data were scored in 10 sec epochs for waking (W), rapid eye movement sleep (REM), and non-REM sleep (NR). Tcore and LMA (counts per minute) were analyzed as hourly means. Data from the EEG studies are reported in hourly means such that the hourly time ZT1 refers to the hour between time points ZT0 and ZT1.
For each of the three separate studies, a repeated measures counter-balanced design was employed in which each rat received five separate dosings. […] All dosings were administered ip in a volume of 2 ml/kg. A minimum of 3 d elapsed between doses. Dosing occurred during the middle of the rats’ normal active period at the start of ZT19 and was typically completed within 10 min. Animals were continuously recorded for 6 h prior to dosing and for 18 h following dosing.

[1] = 6 h Average, almorexant 10 mg/kg ip
[2] = 6 h Total, almorexant 10 mg/kg ip

In the case of `CNC(=O)[C@@H](c1ccccc1)N1CCc2cc(OC)c(OC)cc2[C@@H]1CCc1ccc(C(F)(F)F)cc1` [almorexant, (2R)-2-[(1S)-6,7-Dimethoxy-1-[2-(4-trifluoromethyl-phenyl)-ethyl]-3,4-dihydro-1H-isoquinolin-2-yl]-N-methyl-2-phenyl-acetamide], the “cumulative REM (in words)” value (30 mg/kg ip, first 2 h) is reported as “Cumulative REM also increased”, the “cumulative REM (in words)” value (100 mg/kg ip, 6 h period) is reported as “Cumulative REM also increased” and the “numbers of W and NR bouts (in words)” value (100 mg/kg ip, ZT19, ZT20, ZT22-ZT24) is reported as “increased numbers of W and NR bouts”. The “W bout duration (in words)” value (100 mg/kg ip, ZT22, vs vehicle) was “decreased”, the “number of REM bouts (in words)” value (100 mg/kg ip, ZT22-ZT24) was “increased” and the “LMA (in words)” value (100 mg/kg ip, across 6 h, vs vehicle) was “LMA was decreased”. For the same compound, the “NR latency (in words)” value (30 and 100 mg/kg ip at ZT19, vs vehicle) was “reduced NR latency”, the “cumulative NR (in words)” value (30 and 100 mg/kg ip, 2, 4 and 6 h) was “increased cumulative NR” and the NR bout duration (6 h Average, 30 mg/kg ip) was 1.25 ±0.09^+. For the same compound, the REM bout duration (6 h Average, 30 mg/kg ip) was 1.32 ± 0.10, the W bout duration (6 h Average, 30 mg/kg ip) was 2.53 ± 0.41 and the NR bout duration (6 h Average, 100 mg/kg ip) was 1.20 ± 0.08^+. For the same compound, the REM bout duration (6 h Average, 100 mg/kg ip) was 1.20 ± 0.12, the W bout duration (6 h Average, 100 mg/kg ip) was 1.59 ± 0.20*^+ and the NR bout duration [1] was 1.22 ± 0.08^+. For the same compound, the REM bout duration [1] was 1.11 ± 0.13, the W bout duration [1] was 4.37 ± 1.09 and the “Number of NR bouts” value (6 h Total, 30 mg/kg ip) was 103.0 ± 9.60*^+. The “Number of REM bouts” value (6 h Total, 30 mg/kg ip) was 20.38 ± 3.12^+, the “Number of NR bouts” value (6 h Total, 100 mg/kg ip) was 127.0 ± 6.02*^+ and the “Number of REM bouts” value (6 h Total, 100 mg/kg ip) was 27.75 ± 3.26*^+. For the same compound, the “Number of W bouts” value (6 h Total, 100 mg/kg ip) was 109.38 ±7.91*^+, the “Number of NR bouts” value [2] was 82.00 ±9.10 and the “Number of REM bouts” value [2] was 18.00 ± 3.80^+. For the same compound, the “Number of W bouts” value [2] was 67.50 ± 8.89, the “REM:NR ratio” value (10 mg/kg ip (almorexant)) was 0.19±0.026^+ and the “REM:NR ratio” value (30 mg/kg ip) was 0.20±0.022^+. The “REM:NR ratio” value (100 mg/kg ip) was 0.21±0.021^+, the “NR during the subsequent light period (in words)” value (ZT1 and ZT6, 30 mg/kg ip, vs vehicle) was “NR increased” and the NR bout duration (ZT19, 30 mg/kg ip) was 1.33 ± 0.14^+. For the same compound, the “Number of NR bouts” value (ZT19, 30 mg/kg ip) was 15.00 ± 1.83, the “Number of REM bouts” value (ZT19, 30 mg/kg ip) was 2.63 ± 0.50*^+ and the “Number of W bouts” value (ZT19, 30 mg/kg ip) was 10.38 ± 1.53. The REM bout duration (ZT19, 30 mg/kg ip) was 1.52 ± 0.26*^+, the W bout duration (ZT19, 30 mg/kg ip) was 4.69 ± 1.87 and the NR bout duration (ZT19, 100 mg/kg ip) was 1.50 ± 0.14*^+. The “Number of NR bouts” value (ZT19, 100 mg/kg ip) was 14.00 ± 1.25, the “Number of REM bouts” value (ZT19, 100 mg/kg ip) was 1.25 ± 0.49 and the “Number of W bouts” value (ZT19, 100 mg/kg ip) was 12.25 ± 1.74. The REM bout duration (ZT19, 100 mg/kg ip) was 1.44 ± 0.38*^+, the W bout duration (ZT19, 100 mg/kg ip) was 3.31 ± 0.65 and the NR bout duration (ZT19, almorexant 10 mg/kg ip) was 1.27 ± 0.15^+. The “Number of NR bouts” value (ZT19, almorexant 10 mg/kg ip) was 8.63 ± 1.82, the “Number of REM bouts” value (ZT19, almorexant 10 mg/kg ip) was 1.75 ± 0.53 and the “Number of W bouts” value (ZT19, almorexant 10 mg/kg ip) was 6.63 ± 1.50. For the same compound, the REM bout duration (ZT19, almorexant 10 mg/kg ip) was 0.76 ± 0.19*^+, the W bout duration (ZT19, almorexant 10 mg/kg ip) was 9.90 ± 3.21 and the NR bout duration (ZT20, 30 mg/kg ip) was 1.34 ± 0.08^+. For the same compound, the “Number of NR bouts” value (ZT20, 30 mg/kg ip) was 19.75 ± 2.25, the “Number of REM bouts” value (ZT20, 30 mg/kg ip) was 4.38 ± 1.08^+ and the “Number of W bouts” value (ZT20, 30 mg/kg ip) was 16.38 ± 1.68^+. The REM bout duration (ZT20, 30 mg/kg ip) was 1.37 ± 0.05^+, the W bout duration (ZT20, 30 mg/kg ip) was 1.96 ± 0.75 and the NR bout duration (ZT20, 100 mg/kg ip) was 1.37 ± 0.12^+. For the same compound, the “Number of NR bouts” value (ZT20, 100 mg/kg ip) was 22.25 ± 2.36, the “Number of REM bouts” value (ZT20, 100 mg/kg ip) was 3.00 ± 1.20 and the “Number of W bouts” value (ZT20, 100 mg/kg ip) was 18.38 ± 1.40*^+. For the same compound, the REM bout duration (ZT20, 100 mg/kg ip) was 1.08 ± 0.15^+, the W bout duration (ZT20, 100 mg/kg ip) was 1.41 ± 0.13^+ and the NR bout duration (ZT20, almorexant 10 mg/kg ip) was 1.31 ± 0.09^+. For the same compound, the “Number of NR bouts” value (ZT20, almorexant 10 mg/kg ip) was 19.38 ± 2.38, the “Number of REM bouts” value (ZT20, almorexant 10 mg/kg ip) was 4.13 ± 0.97^+ and the “Number of W bouts” value (ZT20, almorexant 10 mg/kg ip) was 14.88 ± 2.05^+. For the same compound, the REM bout duration (ZT20, almorexant 10 mg/kg ip) was 1.16 ± 0.17^+, the W bout duration (ZT20, almorexant 10 mg/kg ip) was 2.37 ± 0.70 and the NR bout duration (ZT21, 30 mg/kg ip) was 1.27 ± 0.09^+. The “Number of NR bouts” value (ZT21, 30 mg/kg ip) was 20.75 ± 1.39, the “Number of REM bouts” value (ZT21, 30 mg/kg ip) was 5.25 ± 1.16^+ and the “Number of W bouts” value (ZT21, 30 mg/kg ip) was 18.38 ± 1.39^+. The REM bout duration (ZT21, 30 mg/kg ip) was 1.26 ± 0.14 and the W bout duration (ZT21, 30 mg/kg ip) was 1.43 ± 0.30^+.
